From the OligoGym collection
Where “and” joins values, the source holds several entries; their conditions need not be identical. Equal entries are not always repeated. After the bases stand the sugars from the 5' end (letter, count) and the backbone: PS all phosphorothioate, else s phosphorothioate and o phosphodiester by linkage. Methylation of C is not given here. e = 2'-O-(2-methoxyethyl) (MOE); k = constrained ethyl (cEt); d = 2'-deoxy (DNA); m = 2'-O-methyl

Biological target: HSD17B13
Settings: ASO, HepaRG

| Sequence | target mRNA inhibition (1 µM) | other results |
| --- | --- | --- |
| CTTACGACAGGTCATC (sugars k3 d10 k3, PS) | 39% |  |
| CTTAGGAAAGCTCATG (sugars k3 d10 k3, PS) | 0% |  |
| CTTAGTACCAAGACAC (sugars k3 d10 k3, PS) | 60% |  |
| CTTATACTGAAGGCTG (sugars k3 d10 k3, PS) | 48% |  |
| CTTATGTAATAGCCAG (sugars k2 d10 k3 e1, PS) | 70% |  |
| CTTATGTAATAGCCAG (sugars kkdddddddddkekek, PS) | 61% |  |
| CTTAUGTAATAGCCAG (sugars k3 d1 m1 d8 k3, PS) | 75% | target mRNA inhibition (0.02 µM): 0%; target mRNA inhibition (0.078 µM): 0%; target mRNA inhibition (0.313 µM): 34%; target mRNA inhibition (1.25 µM): 65%; target mRNA inhibition (5 µM): 91% |
| CTTCATAGTGGACTTC (sugars kkdddddddddkekek, PS) | 45% |  |
| CTTCTCTTGGGTCCAT (sugars k3 d10 k3, PS) | 51% |  |
| CTTCTTACGACTTCAT (sugars k3 d10 k3, PS) | 45% |  |
| CTTGAACAGTCTTAAA (sugars k3 d9 k3 e1, PS) | 43% |  |
| CTTGAACAGTCTTAAA (sugars k3 d10 k3, PS) | 39% |  |
| CTTGACAATGGTTGAT (sugars k3 d10 k3, PS) | 54% |  |
| CTTGACTAAGGAGCTA (sugars k3 d10 k3, PS) | 24% |  |
| CTTGAGAGTGATTGCC (sugars k3 d10 k3, PS) | 64% |  |
| CTTGATGTAGTGGGAG (sugars k3 d9 k3 e1, PS) | 62% |  |
| CTTTAGTCAACAGTAC (sugars k3 d10 k3, PS) | 12% |  |
| CTTTCTATCAACCTGC (sugars k3 d10 k3, PS) | 68% |  |
| CTTTGAGACTCTTGTT (sugars k3 d9 k3 e1, PS) | 57% |  |
| CTTTGAGACTCTTGTT (sugars kkdddddddddkekek, PS) | 42% |  |
| CTTTTGTCCACCTTTA (sugars k3 d10 k3, PS) | 76% |  |
| CTTTTTATAGACTGGG (sugars kkdddddddddkekek, PS) | 37% |  |
| GAAACTCACTTCCTAC (sugars k3 d10 k3, PS) | 56% |  |

| Sequence | target mRNA inhibition (1 µM) | other results |
| --- | --- | --- |
| GAAACTTGATCTCTTA (sugars k3 d1 m1 d8 k3, PS) | 59% |  |
| GAAACTTGATCTCTTA (sugars k3 d9 k3 e1, PS) | 79% | target mRNA inhibition (0.02 µM): 0%; target mRNA inhibition (0.078 µM): 11%; target mRNA inhibition (0.313 µM): 60%; target mRNA inhibition (1.25 µM): 82%; target mRNA inhibition (5 µM): 90% |
| GAAAGATGGAATGAGC (sugars k3 d10 k3, PS) | 54% |  |
| GAAATTGATACACCAA (sugars k3 d10 k3, PS) | 67% |  |
| GAAATTTGTGAACCTG (sugars k3 d10 k3, PS) | 32% |  |
| GAACAATCTCCCCAGC (sugars k3 d10 k3, PS) | 63% |  |
| GAACAGTCTTAAACCT (sugars k3 d1 m1 d8 k3, PS) | 75% | target mRNA inhibition (0.02 µM): 0%; target mRNA inhibition (0.078 µM): 24%; target mRNA inhibition (0.313 µM): 53%; target mRNA inhibition (1.25 µM): 66%; target mRNA inhibition (5 µM): 69% |
| GAACAGTCTTAAACCT (sugars kkdddddddddkekek, PS) | 63% |  |
| GAACCCAGTATTCACA (sugars k3 d10 k3, PS) | 0% |  |
| GAAGAAGTGCTTTTGT (sugars k3 d10 k3, PS) | 50% |  |
| GAAGATTAGTTAACCT (sugars k3 d10 k3, PS) | 13% |  |
| GAAGTATGTGAACTCC (sugars k3 d10 k3, PS) | 56% |  |
| GAAGTGATCCATATTC (sugars k3 d10 k3, PS) | 44% |  |
| GAAGTTAGTATAGTTA (sugars kkdddddddddkekek, PS) | 56% |  |
| GAAGUTAGTATAGTTA (sugars k3 d1 m1 d8 k3, PS) | 43% |  |
| GAATACGCTGAGAGTT (sugars k3 d10 k3, PS) | 11% |  |
| GAATAGAGTTGCACCG (sugars k3 d10 k3, PS) | 55% |  |
| GAATAGCAAGCCAACA (sugars k3 d9 k3 e1, PS) | 30% |  |
| GAATAGCAAGCCAACA (sugars k3 d10 k3, PS) | 64% | target mRNA inhibition (0.02 µM): 0%; target mRNA inhibition (0.078 µM): 4%; target mRNA inhibition (0.313 µM): 12%; target mRNA inhibition (1.25 µM): 20%; target mRNA inhibition (5 µM): 40% and 50% |
| GAATAGCAAGCCAACA (sugars kkdddddddddkekek, PS) | 27% |  |
| GAATAGTCTTCAGCAA (sugars k3 d10 k3, PS) | 51% |  |
| GAATGCTACTTGAACA (sugars k3 d9 k3 e1, PS) | 56% |  |
| GAATTGCTCACCCTTT (sugars k3 d10 k3, PS) | 24% |  |
